Earlier results in patent publication US12390418B2, “Biphasic compositions comprising one or both of carbonate and phosphate” (NATURAL EXTRACTION SYSTEMS, LLC, priority 2021, dated 2025).

Conditions: in water at 20 degrees Celsius

Molecule	association constant for protonation (Kb)
O=C(O)O [carbonate]	approximately 210 micromolar
O=C(O)O [bicarbonate]	approximately 22 nanomolar
O=P(O)(O)O [hydrogen phosphate]	approximately 160 nanomolar
phosphate	approximately 23 millimolar
